Experimental findings from US10351547B2, “Somatostatin modulators and uses thereof” (priority 2016, dated 2019) are described below.

Where only a bound is given, the exact number is not on record here.

For one assay, the target named is human SSTR2 (Homo sapiens (Human), UniProt P30874). In words: Human SSTR2 intracellular cAMP functional assay for agonists (HTRF). Format: cell-based.
human SSTR2, sequence (P30874 whole entry): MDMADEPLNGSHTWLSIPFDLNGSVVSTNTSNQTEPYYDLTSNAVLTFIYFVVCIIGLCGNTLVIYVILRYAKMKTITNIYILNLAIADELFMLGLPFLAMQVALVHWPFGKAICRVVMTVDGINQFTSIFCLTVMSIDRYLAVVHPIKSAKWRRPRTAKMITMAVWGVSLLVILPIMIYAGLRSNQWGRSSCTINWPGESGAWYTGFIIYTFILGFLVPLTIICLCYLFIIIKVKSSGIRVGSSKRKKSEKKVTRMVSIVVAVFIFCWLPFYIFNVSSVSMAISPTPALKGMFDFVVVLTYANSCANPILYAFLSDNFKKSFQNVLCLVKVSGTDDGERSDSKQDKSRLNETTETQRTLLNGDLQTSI
Conditions: not given
Here is the method:
Functional Assay for SSTR2 Agonists
General overview: All five SSTR subtypes are Gi coupled G-protein coupled receptors (GPCRs) that lead to decreases in intracellular cyclic AMP (cAMP) when activated by an agonist. […] Human SSTR2 intracellular cAMP assay is described below. The human SSTR1, 3, 4 and 5 assays follow the same protocol of SSTR2.
The cells are cultured at 37° C., 5% CO2 and 95% humidity. […] The cells are incubated for 20 minutes at 37° C. […] The cells are treated with 50 μL of lysis buffer (HRTF cAMP kit, Cisbio). […] The time-resolved fluorescent signal is read with a Tecan M1000Pro multiplate reader. The intracellular cAMP concentrations are calculated by regression to a standard curve and are plotted vs. the concentration of the compounds of the invention and the EC50 of the compounds are calculated using standard methods. All data manipulations are in GraphPad Prism v6.
For orientation: TR-FRET usually uses a lanthanide donor and a delayed reading to cut background.
The EC50 is the concentration giving half of the maximal effect. On to `CO[C@@H]1CN(c2c(-c3cc(F)cc(F)c3)cnc3ccc(-c4cccc(C#N)c4O)cc23)CC[C@H]1N` (relative stereo) [2-3, 3-{4-[trans-4-amino-3-methoxypiperidin-1-yl]-3-(3,5-difluorophenyl)quinolin-6-yl}-2-hydroxybenzonitrile], for which the EC50 was under 10 nM.
In turn, `N#Cc1cccc(-c2ccc3ncc(-c4cc(F)cc(F)c4)c(N4CC[C@@H](N)[C@@H](O)C4)c3c2)c1O` (relative stereo) [2-60, cis-3-{4-[4-amino-3-hydroxypiperidin-1-yl]-3-(3,5-difluorophenyl)quinolin-6-yl}-2-hydroxybenzonitrile] returned a concentration giving a half-maximal response (EC50) of under 10 nM.
Regarding `CNC(=O)[C@@H]1CN(c2c(-c3cc(F)cc(F)c3)cnc3ccc(-c4cccc(C#N)c4O)cc23)CC[C@H]1N` (relative stereo) [2-149, trans-4-Amino-1-[6-(3-cyano-2-hydroxyphenyl)-3-(3,5-difluorophenyl)quinolin-4-yl]-N-methylpiperidine-3-carboxamide], the half-maximal effective concentration (EC50) was 100 to 1000 nM.
The same measure, in the same setting: under `COC(=O)[C@@H]1CN(c2c(-c3cc(F)cc(F)c3)cnc3ccc(-c4cccc(C#N)c4O)cc23)CC[C@H]1N` (relative stereo) [2-170, methyl (trans)-4-amino-1-[6-(3-cyano-2-hydroxyphenyl)-3-(3,5-difluorophenyl)quinolin-4-yl]piperidine-3-carboxylate] stands 100 to 1000 nM.

The same assay, now with this note: CHO-K1 cells stably expressing human SSTR2; NKH477-stimulated cAMP; read-out: EC50 (inhibition of cAMP activities via human SST2R).
For “3-[4-(4-aminopiperidin-1-yl)-7-chloro-3-(3,5-dichlorophenyl)cinnolin-6-yl]-5-fluoro-2-hydroxybenzonitrile [1-27]”, the EC50 is under 10 nM.
Turning to `Oc1c(F)cccc1-c1ccc2ncc(-c3cc(F)cc(F)c3)c(N3CC[C@H]4NCCO[C@@H]4C3)c2c1` (racemic) [2-144, trans-2-[3-(3,5-difluorophenyl)-4-{octahydro-1H-pyrido[3,4-b]morpholin-6-yl}quinolin-6-yl]-6-fluorophenol], the EC50 is under 10 nM.
Still for that read-out and setting: under `COCCOc1c(C#N)cccc1-c1ccc2ncc(-c3cc(C)cc(F)c3)c(N3CC[C@@H](N)[C@@H](O)C3)c2c1` (racemic) [2-224, 3-{4-[cis-4-amino-3-hydroxypiperidin-1-yl]-3-(3-fluoro-5-methylphenyl)quinolin-6-yl}-2-(2-methoxyethoxy)benzonitrile] stands under 10 nM; under `Cc1cc(F)cc(-c2cnc3ccc(-c4cccc(F)c4/C=N/O)cc3c2N2CC[C@@H](N)[C@@H](O)C2)c1` (racemic) [2-227, cis-4-amino-1-(6-{3-fluoro-2-[(hydroxyimino)methyl]phenyl}-3-(3-fluoro-5-methylphenyl)quinolin-4-yl)piperidin-3-ol], under 10 nM; under `CO/N=C/c1cccc(-c2ccc3ncc(-c4cc(F)cc(F)c4)c(N4CC[C@H]5NCCO[C@@H]5C4)c3c2)c1O` (racemic) [2-243, 2-{4-[trans-octahydro-1H-pyrido[3,4-b]morpholin-6-yl]-3-(3,5-difluorophenyl)quinolin-6-yl}-6-(methoxyiminomethyl)phenol], under 10 nM.
Consider `Cc1cc(F)cc(-c2nnc3cc(Cl)c(-c4cc(F)cc(C(N)=O)c4)cc3c2N2CC[C@@H](N)[C@H](F)C2)c1` (relative stereo) [1-5, 3-{4-[trans-4-amino-3-fluoropiperidin-1-yl]-7-chloro-3-(3-fluoro-5-methylphenyl)cinnolin-6-yl}-5-fluorobenzamide], for which the EC50 was under 10 nM.
For `Cc1cc(F)cc(-c2nnc3cc(Cl)c(-c4cc(F)cc(C(N)=O)c4)cc3c2N2CC[C@H](N)[C@H](F)C2)c1` (relative stereo) [1-6, 3-{4-[cis-4-amino-3-fluoropiperidin-1-yl]-7-chloro-3-(3-fluoro-5-methylphenyl)cinnolin-6-yl}-5-fluorobenzamide], the EC50 is under 10 nM.
On the same count and under the same terms, in the case of `CO[C@@H]1CN(c2c(-c3cc(C)cc(F)c3)nnc3cc(Cl)c(-c4cc(F)cc(C(N)=O)c4)cc23)CC[C@H]1N` (relative stereo) [1-10, 3-{4-[trans-4-amino-3-methoxypiperidin-1-yl]-7-chloro-3-(3-fluoro-5-methylphenyl)cinnolin-6-yl}-5-fluorobenzamide] it was under 10 nM.
The same measure, in the same setting: in the case of `CO[C@@H]1CN(c2c(-c3cc(F)cc(F)c3)cnc3ccc(-c4cccc(C#N)c4)cc23)CC[C@H]1N` (relative stereo) [2-4, 3-{4-[trans-4-amino-3-methoxypiperidin-1-yl]-3-(3,5-difluorophenyl)quinolin-6-yl}benzonitrile] it was under 10 nM; in that of `N#Cc1cccc(-c2ccc3ncc(-c4cc(F)cc(F)c4)c(N4CC[C@H]5NCCO[C@@H]5C4)c3c2)c1O` (relative stereo) [2-19, 3-{4-[trans-octahydro-1H-pyrido[3,4-b]morpholin-6-yl]-3-(3,5-difluorophenyl)quinolin-6-yl}-2-hydroxybenzonitrile], under 10 nM.
Still for that read-out and setting: in the case of `Cc1cc(F)cc(-c2cnc3ccc(-c4cccc(C#N)c4O)cc3c2N2CC[C@H]3NCCO[C@@H]3C2)c1` (relative stereo) [2-20] it was under 10 nM; in that of `COCOc1c(C#N)cccc1-c1ccc2ncc(-c3cc(F)cc(F)c3)c(N3CC[C@H](N)[C@H](O)C3)c2c1` (relative stereo) [2-58, 3-{4-[cis-4-amino-3-hydroxypiperidin-1-yl]-3-(3,5-difluorophenyl)quinolin-6-yl}-2-(methoxymethoxy)benzonitrile], under 10 nM.
Consider `N#Cc1cc(F)cc(-c2ccc3ncc(-c4cc(F)cc(F)c4)c(N4CC[C@H](N)[C@H](O)C4)c3c2)c1O` (relative stereo) [2-63, 3-{4-[cis-4-amino-3-hydroxypiperidin-1-yl]-3-(3,5-difluorophenyl)quinolin-6-yl}-5-fluoro-2-hydroxybenzonitrile], for which the EC50 was under 10 nM.
As to `N#Cc1cccc(-c2ccc3ncc(-c4cc(F)cc(F)c4)c(N4CC[C@@H](N)[C@H](C#N)C4)c3c2)c1O` (relative stereo) [2-92, trans-4-amino-1-[6-(3-cyano-2-hydroxyphenyl)-3-(3,5-difluorophenyl)quinolin-4-yl]piperidine-3-carbonitrile], the EC50 fell in the range of 100 to 1000 nM.
Same read-out and setting: under `N#Cc1cccc(-c2ccc3ncc(-c4cc(F)cc(F)c4)c(N4CC[C@H](N)[C@H](C#N)C4)c3c2)c1O` (relative stereo) [2-94, cis-4-amino-1-[6-(3-cyano-2-hydroxyphenyl)-3-(3,5-difluorophenyl)quinolin-4-yl]piperidine-3-carbonitrile] stands 10 to 100 nM; under `N#Cc1cc(F)c(F)c(-c2ccc3ncc(-c4cc(F)cc(F)c4)c(N4CC[C@H]5NCCO[C@@H]5C4)c3c2)c1O` (relative stereo) [2-100, 3-{4-[trans-octahydro-1H-pyrido[3,4-b]morpholin-6-yl]-3-(3,5-difluorophenyl)quinolin-6-yl}-4,5-difluoro-2-hydroxybenzonitrile], 10 to 100 nM; under `COC(=O)[C@@H]1CN(c2c(-c3cc(F)cc(F)c3)cnc3ccc(-c4cccc(C#N)c4O)cc23)CC[C@H]1N` (relative stereo) [2-143, methyl trans-4-amino-1-[6-(3-cyano-2-hydroxyphenyl)-3-(3,5-difluorophenyl)quinolin-4-yl]piperidine-3-carboxylate], under 10 nM.
Still for that read-out and setting: in the case of `N#Cc1cccc(-c2ccc3ncc(-c4cc(F)cc(F)c4)c(N4CC[C@@H](N)[C@H](C(N)=O)C4)c3c2)c1O` (relative stereo) [2-146, trans-4-Amino-1-[6-(3-cyano-2-hydroxyphenyl)-3-(3,5-difluorophenyl)quinolin-4-yl]piperidine-3-carboxamide] it was over 1000 nM; in that of `CN(C)C(=O)[C@@H]1CN(c2c(-c3cc(F)cc(F)c3)cnc3ccc(-c4cccc(C#N)c4O)cc23)CC[C@H]1N` (relative stereo) [2-151, trans-4-amino-1-[6-(3-cyano-2-hydroxyphenyl)-3-(3,5-difluorophenyl)quinolin-4-yl]-N,N-dimethylpiperidine-3-carboxamide], 100 to 1000 nM; in that of `Cc1cc(F)cc(-c2cnc3ccc(-c4cc(F)cc(C#N)c4O)cc3c2N2CC[C@H](N)[C@H](O)C2)c1` (relative stereo) [2-219, cis-3-{4-[4-amino-3-hydroxypiperidin-1-yl]-3-(3-fluoro-5-methylphenyl)quinolin-6-yl}-5-fluoro-2-hydroxybenzonitrile], under 10 nM.
Same read-out and setting: under `COCCOc1c(C#N)cc(F)cc1-c1ccc2ncc(-c3cc(C)cc(F)c3)c(N3CC[C@H](N)[C@H](O)C3)c2c1` (relative stereo) [2-220, cis-3-{4-[4-amino-3-hydroxypiperidin-1-yl]-3-(3-fluoro-5-methylphenyl)quinolin-6-yl}-5-fluoro-2-(2-methoxyethoxy)benzonitrile] stands under 10 nM; under `CON=Cc1cccc(-c2ccc3ncc(-c4cc(C)cc(F)c4)c(N4CC[C@H]5NCCO[C@@H]5C4)c3c2)c1O` (relative stereo) [2-221, 2-{4-[trans-octahydro-1H-pyrido[3,4-b]morpholin-6-yl]-3-(3-fluoro-5-methylphenyl)quinolin-6-yl}-6-[(methoxyimino)methyl]phenol], under 10 nM.
For the compound `COCCOc1c(C#N)cccc1-c1ccc2ncc(-c3cc(F)cc(F)c3)c(N3CC[C@H](N)[C@H](O)C3)c2c1` (relative stereo) [2-225, cis-3-{4-[4-amino-3-hydroxypiperidin-1-yl]-3-(3,5-difluorophenyl)quinolin-6-yl}-2-(2-methoxyethoxy)benzonitrile], the half-maximal effective concentration (EC50) is under 10 nM.
